Two substances from patent US20050238593A1, “Compositions containing dolichol for dermatological and cosmetic use” (priority 2002, published 2005) can be followed below.

The subject of data set [1] is isolated hepatocytes treated with carbon tetrachloride. The data set is described as follows: Peroxidative degradation of dolichol and TBARS formation in hepatocytes treated with CCl4. The class given is cell-based. To be noted: Vitamin E administered. From the text:
(§1) After irradiation, dolichol undergoes transformations in the most dangerous spectral region (UVB), depending on the dose of radiation applied; it absorbs UV radiation and, if irradiated with UVC rays, instantly acquires an absorption capacity in the UVB region. […] The phenomenon is very weak in the case of irradiation with monochromatic light at 310 nm, more intense with irradiation at 280 nm, and greatest with white light irradiation, namely with the entire emission spectrum of the xenon lamp. […] The photodecomposition products of dolichol have not yet been identified but, by analogy with the findings made with peroxidative degradation of dolichol in isolated hepatocytes treated with carbon tetrachloride, it can be concluded that in biological systems, the degradation cascade leads to the formation of thiobarbituric acid reactive substances (TBARS), which are readily metabolised and detoxified by the body in the event of resorption. […] As regards absorption, it should be borne in mind that dolichol is a normal constituent of all cell membranes, in which it is synthesised and remains until breakdown, without being resorbed into the bloodstream or being transferable to other tissues.

Data set [2] can be described thus: Study of anti UV-B activity: UV photo-irradiation of dolichol, absorbance change. It is filed as physicochemical.
Text: as §1

A short description of data set [3]: In vivo photoprotection tests using dolichol. The following applies: dolichol approx. 1 mg/cm2, in vivo.

Turning to Vitamin E, the “degradation of dolichol and formation of TBARS” value in data set [1] is “prevented”.

Take dolichol: the “photostability under UV photo-irradiation” value in data set [2] (UV photo-irradiation in an oxygen atmosphere) is recorded as “apparent breakdown, accompanied by disappearance of UVC absorption capacity”. Besides, the “increase in absorbance at 250 nm” value in data set [2] (irradiated with UVC rays) is on record as “more modest increases”. Further, the “increase in absorbance at 320 nm” value turned out to be 430% in data set [2] (irradiated with UVC rays, in one minute) and 580% in data set [2] (irradiated with UVC rays, in two minutes). For the same substance, the “acquisition of UVB absorption (the phenomenon)” value is given as “more intense” in data set [2] (irradiation at 280 nm); “very weak” in data set [2] (irradiation with monochromatic light at 310 nm); “greatest” in data set [2] (white light irradiation, entire emission spectrum of the xenon lamp). Besides, in data set [3], the “(photo)sensitising effects” value is listed as “does not have cell-damaging effects or (photo)sensitising effects”. For the same substance, the cell-damaging effects result in data set [3] is recorded as “does not have cell-damaging effects”.
